Results: US10918620B2, “Use of statins for periodontal disease and bone regeneration” (priority 2012, dated 2021)

Tests used:
[1] = tested on: periodontal disease; test: Concurrent cohort study of systemic statin therapy: periodontal clinical parameters (BOP, PISA); type: in vivo, human; details: patients taking statins (Atorvastatin 20 mg every 24 hours, systemic); 6 months
Experimental: A concurrent cohort study was perform, with two groups of patients, some exposed to statin therapy and some not exposed to statin therapy. Patient submitted to statin therapy received Atorvastatin 20 mg, every 24 hours, indicated as part of a preventive cardiologic therapy.
The eligible patients were those that meet the following inclusion criteria: a) informed consent, b) over 35 years, c) with at least 14 natural teeth in the mouth (excluding third molars), d) have some degree of periodontal disease.
Measures were taken when starting the study and after 6 months for both groups of patients. The examination included probing depth (PD), clinical attachment level (CAL) and bleeding on probing index (BOP).
Periodontal probing was performed to each tooth at 6 sites (mesiovestibular, mediovestibular, distovestibular, mesiolingual/palatal, mediolingual/palatal and distolingual/palatal). CAL was defined as the distance from the cementoenamel junction to the pocket bottom. […] BI was determined by assigning a “+” sign to the presence of bleeding on probing in vestibular and/or palatal of the examined tooth and with a “−” sign to the absence of bleeding. […]
Periodontal Inflamed Surface Area (PISA) was also calculated using data insertion loss, gingival recession and bleeding on probing. […]

[2] = tested on: IL-6, IL-10, C-reactive protein (CRP) in GCF; test: Cohort study of systemic statin therapy: inflammation biomarkers in gingival crevicular fluid by Elisa; type: in vivo, human
Description: Measurements at Gingival Crevicular Fluid Level (GCF).
Upon confirmation of periodontal diagnosis, samplings of GCF were taken by standard procedures. These are described below:
Two sites were selected from each quadrant which PD is higher. After isolating the tooth with cotton balls, supra-gingival plaque was removed with a curette without touching the gingival margin. Crevicular site was gently dried with air. The GCF was collected with paper cones. The paper points were inserted into the sulcus/pocket until feeling a medium resistance and were left for 40 seconds. Cones contaminated with saliva or blood were excluded. Later the paper cones were placed in a tube. GCF samples were storage at −80° C.
IL-6, IL-10, and C-reactive protein (CRP) were measured as inflammation biomarkers. Measurements were performed through Elisa test. Measurements were performed at the start of the study and after 6 months for both groups of patients, with and without indication of statins.

[3] = tested on: supragingival bacterial plaque and gingival inflammation; details: clinical results, mouthwash; cited from earlier work
[4] = tested on: 52 bacteria isolated from subgingival plaque; details: cited from earlier work
[5] = tested on: release of cytokines and neutrophil adhesion to venous endothelium; details: pretreatment; patients undergoing coronary artery bypass surgery, bypass, or cardiopulmonary graft; cited from earlier work
[6] = tested on: Human PBMC stimulated with PHA (T cells); test: Proliferation of T cells evaluation (CellTrace Violet, flow cytometry); type: cell-based; details: PHA 25 μg/ml, 4 days; FIG. 2
Experimental: The specific objectives of this assay were to evaluate the degree of cell toxicity (cell viability measured in dead % of T cells) and the level of T cell proliferation under a specific stimulus in the presence of: Human PBMC derived from healthy control donors were stimulated with PHA, 25 μg/ml, in presence or absence of Atorvastatin (AT) in various formulations: irradiated (ATi) or non-irradiated (ATni) Atorvastatin, soluble or toothpaste. […] Later cells were harvested and stained with anti-CD4 antibody conjugated to FITC and the samples were analyzed by flow cytometer Beckman Coulter XL.

SMILES: CC(C)c1c(C(=O)Nc2ccccc2)c(-c2ccccc2)c(-c2ccc(F)cc2)n1CC[C@@H](O)C[C@@H](O)CC(=O)O [statins, Atorvastatin]
- reduction of area of periodontal inflammation measured by the PISA index [1]: 58.66%
- reduction of bleeding on probing index (BOP) [1]: 60.89%
- levels of IL-6 in GCF, average ([2]; patients consuming statins (Atorvastatin 20 mg every 24 hours), patients without statins 4.8 pg/ml): 0.47 pg/mL
- reduction of IL-6 in GCF ([2]; patients consuming statins vs patients without statins use): 90.1%
- levels of IL-10 in GCF ([2]; patients taking statins, average in patients not consuming statins 1.23 pg/ml): no IL-10 could be detected
- reduction of levels of CRP (C-reactive protein) in GCF ([2]; patients taking systemic statins): 93%

SMILES: [H]/N=C(\N/C(=N/[H])NCCCCCCNC(=N)NC(=N)Nc1ccc(Cl)cc1)Nc1ccc(Cl)cc1 [chlorhexidine]
- decreased levels of gingival inflammation [3]: 45%
- decreased levels of supragingival bacterial plaque [3]: 55%
- antimicrobial resistance [4]: has not been detected
- concentration at which all bacteria isolated from patients with periodontitis were inhibited [4]: 250 mg/mL

SMILES: CC(C)c1c(C(=O)Nc2ccccc2)c(-c2ccccc2)c(-c2ccc(F)cc2)n1CC[C@@H](O)C[C@@H](O)CC(=O)O [atorvastatin]
- release of cytokines and neutrophil adhesion to venous endothelium [5]: significantly reduce the release of cytokines and neutrophil adhesion to venous endothelium

SMILES: CC(C)c1c(C(=O)Nc2ccccc2)c(-c2ccccc2)c(-c2ccc(F)cc2)n1CC[C@@H](O)C[C@@H](O)CC(=O)O [Soluble ATi, Atorvastatin]
- T cell proliferation (immunomodulatory behavior) [6]: reduces immune cell proliferation
